# Measured values reported in patent US7691898B2 (Kotobuki Pharmaceutical Co., Ltd., priority 2004, dated 2010).
# Legend:
# [1] = tested on: NaH2PO4 loaded mice; assay: Inhibitory effect on the elevation of serum phosphate levels in NaH2PO4 loaded mice; assay type: in vivo; details: Mus musculus; male ddY mice, oral, compound 0.5 hours before oral NaH2PO4 load; serum phosphate AUC up to 4 hours
# Description: EVALUATION OF INHIBITORY EFFECT ON THE ELEVATION OF SERUM PHOSPHATE LEVELS 1N NaH2PO4 LOADED MICE Male ddY mice, aged 6-7 weeks, were fasted overnight and used as 6 mice/group. The compounds suspended in 0.5% methylcellulose were administered orally at a dose of 100 or 300 mg/10 mL/kg. After 0.5 hours, 50 mg/300 uL/mouse of NaH2PO4 solution was administered orally. Blood samples were taken from retro-orbital venousplexus of the mice before administration of the compounds and 0.5, 1, 2 and 4 hours after the NaH2PO4 administration, and serum phosphate concentration was measured using phospha C-test Wako kit (Wako pure chemicals Co. Ctd.). The area under the serum phosphate concentration-time curve (AUC) up to 4 hours after administration of NaH2PO4 was calculated and the inhibitory effect of serum phosphate levels was evaluated.
# [2] = tested on: Human alkaline phosphatase; assay: Stability test against human alkaline phosphatase; assay type: in vitro ADME; details: for amount of compound (HPLC) after incubation with human alkaline phosphatase: 2 U/mL enzyme, 0.1 M carbonate buffer, 37° C.
# Description: Compound 42 or 2′-PP was dissolved in dimethyl sulfoxide and the concentration was adjusted to 1×10^−2 M. […] The amounts of each compound were measured by the HPLC method (HPLC condition, column: Inertsil ODS-2, eluent: 10 mM phosphate buffer/CH3CN=8/2, wavelength: 230 nm, flow rate: 1 mL/min).
SMILES,ED30 [1],other results
"CCOc1ccc(Cc2cc(CP(=O)(O)O)ccc2O)cc1 [Compound 20, [3-(4-Ethoxybenzyl)-4-hydroxybenzyl]phosphonic acid]",244 mg/kg,
"CCOc1ccc(Cc2cc(C(=O)P(=O)(O)O)ccc2O)cc1 [Compound 38, [3-(4-Ethoxybenzyl)-4-hydroxybenzoyl]phosphonic acid]",44.5 mg/kg,
"CSc1ccc(Cc2cc(C(=O)P(=O)(O)O)ccc2O)cc1 [Compound 42, [4-Hydroxy-3-(4-methylthiobenzyl)benzoyl]phosphonic acid]",33.3 mg/kg,amount of compound (HPLC) after incubation with human alkaline phosphatase ([2]; Time 0 hr): 100%; amount of compound (HPLC) after incubation with human alkaline phosphatase ([2]; Time 0.25 hr): 96.3%; amount of compound (HPLC) after incubation with human alkaline phosphatase ([2]; Time 0.5 hr): 96%; amount of compound (HPLC) after incubation with human alkaline phosphatase ([2]; Time 1 hr): 95.8%; amount of compound (HPLC) after incubation with human alkaline phosphatase ([2]; Time 2 hr): 95.5%; stability against human alkaline phosphatase (in words) ([2]; conclusion from Table 1): stable
"CCCOc1ccc(Cc2cc(C(=O)P(=O)(O)O)ccc2O)cc1 [Compound 45, [4-Hydroxy-3-(4-n-propoxybenzyl)benzoyl]phosphonic acid]",20.1 mg/kg,
"CC(C)Oc1ccc(Cc2cc(C(=O)P(=O)(O)O)ccc2O)cc1 [Compound 46, [4-Hydroxy-3-(4-i-propoxybenzyl)benzoyl]phosphonic acid]",16.3 mg/kg,
"O=C(c1ccc(O)c(Cc2ccc(Oc3ccccc3)cc2)c1)P(=O)(O)O [Compound 49, [4-Hydroxy-3-(4-phenoxybenzyl)benzoyl]phosphonic acid]",17.8 mg/kg,
"O=C(c1ccc(O)c(Cc2cc3ccccc3s2)c1)P(=O)(O)O [Compound 54, [3-(Benzo[b]thiophen-2-ylmethyl)-4-hydroxybenzoyl]phosphonic acid]",13.9 mg/kg,
"CCOc1ccc(Cc2cc(C(=O)P(=O)(O)O)ccc2OCCO)cc1 [Compound 57, [3-(4-Ethoxybenzyl)-4-(2-hydroxyethoxy)benzoyl]phosphonic acid]",30.9 mg/kg,
"CSc1ccc(Cc2cc(C(=O)P(=O)(O)O)ccc2OCCO)cc1 [Compound 60, [4-(2-Hydroxyethoxy)-3-(4-methylthiobenzyl)benzoyl]phosphonic acid]",12.1 mg/kg,
"CCOc1ccc(Cc2ccc(P(=O)(O)O)s2)cc1 [Compound 64, 5-(4-Ethoxybenzyl)-2-thiophenephosphonic acid]",165 mg/kg,
"CCOc1ccc(Cc2ccc(CP(=O)(O)O)s2)cc1 [Compound 65, [5-(4-Ethoxybenzyl)thiophen-2-ylmethyl]phosphonic acid]",256 mg/kg,
"CCOc1ccc(Cc2ccc(C(=O)P(=O)(O)O)s2)cc1 [Compound 70, [5-(4-Ethoxybenzyl)thiophen-2-carbonyl]phosphonic acid]",20.3 mg/kg,
"CSc1ccc(Cc2ccc(C(=O)P(=O)(O)O)s2)cc1 [Compound 73, [5-(4-Methylthiobenzyl)thiophen-2-carbonyl]phosphonic acid]",4.5 mg/kg,
"O=C(c1ccc(Cc2ccc(Cl)cc2)s1)P(=O)(O)O [Compound 75, [5-(4-Chlorobenzyl)thiophen-2-carbonyl]phosphonic acid]",25.6 mg/kg,
"CCSc1ccc(Cc2ccc(C(=O)P(=O)(O)O)s2)cc1 [Compound 76, [5-(4-Ethylthiobenzyl)thiophen-2-carbonyl]phosphonic acid]",2 mg/kg,
"CCCCCCCCCCCCCOc1ccc(Cc2ccc(C(=O)P(=O)(O)O)s2)cc1 [Compound 83, [5-(4-n-Tridecanyloxybenzyl)thiophen-2-carbonyl]phosphonic acid]",10.7 mg/kg,
O=C(CCc1ccc(O)cc1)c1c(O)cc(O)cc1OP(=O)(O)O [reference compound],,amount of compound (HPLC) after incubation with human alkaline phosphatase ([2]; Time 0 hr): 100%; amount of compound (HPLC) after incubation with human alkaline phosphatase ([2]; Time 0.25 hr): 31.4%; amount of compound (HPLC) after incubation with human alkaline phosphatase ([2]; Time 0.5 hr): 21.4%; amount of compound (HPLC) after incubation with human alkaline phosphatase ([2]; Time 1 hr): 16.3%; amount of compound (HPLC) after incubation with human alkaline phosphatase ([2]; Time 2 hr): 1.2%
